The Kinase Knowledgebase extract (Sharma et al. 2016)
Where “and” joins values, the source holds several entries; their conditions need not be identical. Identical values can stand only once.

molecular target: PIK3CB;PIK3CA (UniProt P42338); assay: PI3-Kinase alpha/beta Inhibition

For `O=c1cc(N2CCOCC2)oc2c(-c3ccccc3C(F)(F)F)cccc12`, which IC50 is on record?
The IC50 was 0.2 µM.

For `Cc1cc(CNc2ccccc2)c2nc(N3CCOCC3)cc(=O)n2c1`, which IC50 is on record?
The IC50 was 0.05 µM.

Which IC50 does the source give for `Cc1cc(Nc2ccncc2)c2nc(N3CCOCC3)cc(=O)n2c1` here?
Its IC50 is 1 µM.

With `Cc1cc(F)ccc1Oc1cccc2c(=O)cc(N3CCOCC3)[nH]c12` as the molecule, how does the IC50 read?
The IC50 was 0.02 µM.

How did the IC50 turn out when `Cc1ccc(Oc2cc(C)cn3c(=O)cc(N4CCOCC4)nc23)cc1` was run?
Its IC50 is 1 µM.

With `Cc1cc(Nc2ccccc2OCCN(C)C)c2nc(N3CCOCC3)cc(=O)n2c1` as the molecule, how does the IC50 read?
Its IC50 is 2 µM.

How did the IC50 turn out when `COC(=O)c1cccc(Oc2cccc3c(=O)cc(N4CCOCC4)[nH]c23)c1` was run?
Its IC50 is 0.5 µM.

Which IC50 does the source give for `Cc1cc(Oc2cccn3c(=O)cc(N4CCOCC4)nc23)ccc1F` here?
The IC50 was 0.75 µM.

`Cc1cc(Nc2ccc(O)cc2)c2nc(N3CCOCC3)cc(=O)n2c1` was tested. Which IC50 did it give?
The IC50 was 0.1 µM.

With `O=c1cc(N2CCOCC2)oc2c(O)cccc12` as the molecule, how does the IC50 read?
Its IC50 is 25 µM.

For `Cc1cc(NCC2CCNCC2)c2nc(N3CCOCC3)cc(=O)n2c1`, which IC50 is on record?
Its IC50 is 1 µM.

`O=c1cc(N2CCOCC2)nc2c(OCc3ccccc3)cccn12` was tested. Which IC50 did it give?
The IC50 was 0.5 µM.

With `Cc1cc(Oc2cccc3c(=O)cc(N4CCOCC4)oc23)ccc1F` as the molecule, how does the IC50 read?
Its IC50 is 0.1 to 0.15 µM.

For `Cc1cc(-c2ccccc2C(F)(F)F)c2nc(N3CCOCC3)cc(=O)n2c1`, which IC50 is on record?
The IC50 was 2 µM.

Which IC50 does the source give for `O=c1cc(N2CCOCC2)oc2c(Oc3ccccc3)cccc12` here?
The IC50 was 0.1 µM and 0.05 µM.

For `Cc1c(OCc2ccccc2)ccc2c(=O)cc(N3CCOCC3)oc12`, which IC50 is on record?
Its IC50 is 10 µM.

With `Cc1cc(NCc2ccncc2)c2nc(N3CCOCC3)cc(=O)n2c1` as the molecule, how does the IC50 read?
Its IC50 is 0.5 µM.

`Cc1cc(Nc2ccc(O)cc2C)c2nc(N3CCOCC3)cc(=O)n2c1` was tested. Which IC50 did it give?
Its IC50 is 0.1 µM.

Which IC50 does the source give for `Cc1cc(CNc2ccc(F)cc2C)c2nc(N3CCOCC3)cc(=O)n2c1` here?
Its IC50 is 0.01 µM.

Which IC50 does the source give for `O=C(O)c1cccc(Oc2cccc3c(=O)cc(N4CCOCC4)[nH]c23)c1` here?
The IC50 was 0.5 µM.

Which IC50 does the source give for `O=c1cc(N2CCOCC2)oc2c(Cc3ccccc3)cccc12` here?
The IC50 was 0.1 µM.

Which IC50 does the source give for `O=c1cc(N2CCOCC2)[nH]c2c(Cc3ccccc3)cccc12` here?
The IC50 was 2 µM.

Which IC50 does the source give for `O=c1cc(N2CCOCC2)nc2c(Cc3ccccc3)cccn12` here?
Its IC50 is 1.5 µM.

For `Cc1ccccc1-c1cccc2c(=O)cc(N3CCOCC3)oc12`, which IC50 is on record?
The IC50 was 2 µM.

For `Cc1cc(-c2ccsc2)c2nc(N3CCOCC3)cc(=O)n2c1`, which IC50 is on record?
Its IC50 is 1 µM.

`Cc1cc(-c2ccccc2)c2nc(N3CCOCC3)cc(=O)n2c1` was tested. Which IC50 did it give?
Its IC50 is 9.8 µM.

How did the IC50 turn out when `O=c1cc(N2CCOCC2)[nH]c2c(Oc3ccccc3F)cccc12` was run?
The IC50 was 0.15 µM.

Which IC50 does the source give for `Cc1cc(Nc2ccccc2O)c2nc(N3CCOCC3)cc(=O)n2c1` here?
The IC50 was 0.2 µM.

Which IC50 does the source give for `O=c1cc(N2CCOCC2)nc2c(OCc3cccc(Cl)c3)cccn12` here?
The IC50 was 0.5 µM.

`Cc1ccc(S(=O)(=O)Oc2cccc3c(=O)cc(N4CCOCC4)[nH]c23)cc1` was tested. Which IC50 did it give?
The IC50 was 1 µM.

With `COc1cccc(COc2cccn3c(=O)cc(N4CCOCC4)nc23)c1` as the molecule, how does the IC50 read?
Its IC50 is 1 µM.

With `Cc1cc(Nc2ncccc2C)c2nc(N3CCOCC3)cc(=O)n2c1` as the molecule, how does the IC50 read?
The IC50 was 10 µM.

With `Cc1cc(Nc2ccccc2C(F)(F)F)c2nc(N3CCOCC3)cc(=O)n2c1` as the molecule, how does the IC50 read?
The IC50 was 5 µM.

How did the IC50 turn out when `Cc1cc(CCc2ccncc2)c2nc(N3CCOCC3)cc(=O)n2c1` was run?
Its IC50 is 1 µM.

`Cc1c(Oc2ccccc2)ccc2c(=O)cc(N3CCOCC3)oc12` was tested. Which IC50 did it give?
Its IC50 is 5 µM and 10 µM and 2 µM.

With `Cc1cc(NCc2ccc(Cl)cc2)c2nc(N3CCOCC3)cc(=O)n2c1` as the molecule, how does the IC50 read?
Its IC50 is 1 µM.

`O=c1cc(N2CCOCC2)nc2c(Oc3ccccc3)cccn12` was tested. Which IC50 did it give?
The IC50 was 1 µM.

For `O=c1cc(N2CCOCC2)[nH]c2c(Cc3ccc(F)cc3)cccc12`, which IC50 is on record?
The IC50 was 1 µM.

`CC(C)(C)c1ccc(COc2cccn3c(=O)cc(N4CCOCC4)nc23)cc1` was tested. Which IC50 did it give?
Its IC50 is 7.5 µM.

For `O=c1cc(N2CCOCC2)nc2c(OCc3cccnc3)cccn12`, which IC50 is on record?
Its IC50 is 10 µM.

How did the IC50 turn out when `Cc1cc(C2CCN(C)C2=O)c2nc(N3CCOCC3)cc(=O)n2c1` (configuration not stated) was run?
Its IC50 is 20 µM.

With `O=c1cc(N2CCOCC2)oc2c(-c3ccccc3Cl)cccc12` as the molecule, how does the IC50 read?
The IC50 was 0.5 µM.

For `Cc1ccccc1Oc1cccc2c(=O)cc(N3CCOCC3)[nH]c12`, which IC50 is on record?
Its IC50 is 0.05 µM.

`O=c1cc(N2CCOCC2)[nH]c2c(Oc3ccc(F)cc3)cccc12` was tested. Which IC50 did it give?
Its IC50 is 0.05 µM.

Which IC50 does the source give for `Cc1ccc(Cc2cccc3c(=O)cc(N4CCOCC4)[nH]c23)cc1` here?
Its IC50 is 2 µM.

Which IC50 does the source give for `Cc1cc(Nc2ccc(F)cc2C)c2nc(N3CCOCC3)cc(=O)n2c1` here?
The IC50 was 0.2 µM.

`O=c1cc(N2CCOCC2)nc2c(OCc3ccccn3)cccn12` was tested. Which IC50 did it give?
Its IC50 is 10 µM.

`Cc1cccc(Oc2cccc3c(=O)cc(N4CCOCC4)[nH]c23)c1` was tested. Which IC50 did it give?
Its IC50 is 0.05 µM.

Which IC50 does the source give for `Cc1cc(N[C@H](C)c2ccccc2)c2nc(N3CCOCC3)cc(=O)n2c1` here?
Its IC50 is 0.2 µM.

Which IC50 does the source give for `COc1ccccc1CNc1cc(C)cn2c(=O)cc(N3CCOCC3)nc12` here?
The IC50 was 0.05 µM.

How did the IC50 turn out when `O=c1cc(N2CCOCC2)oc2cc(OCc3cccnc3)ccc12` was run?
Its IC50 is 2 µM.

Which IC50 does the source give for `O=c1cc(N2CCOCC2)[nH]c2c(Sc3ccccc3)cccc12` here?
Its IC50 is 0.05 µM.

How did the IC50 turn out when `O=c1cc(N2CCOCC2)oc2cc(/C=C/c3ccccc3)ccc12` was run?
Its IC50 is 10 µM.

`Cc1cc(NCc2ccccc2Cl)c2nc(N3CCOCC3)cc(=O)n2c1` was tested. Which IC50 did it give?
The IC50 was 0.05 µM.

For `Cc1ccc(Oc2cccc3c(=O)cc(N4CCOCC4)[nH]c23)cc1`, which IC50 is on record?
Its IC50 is 0.5 µM.

`O=c1cc(N2CCOCC2)nc2c(-c3ccccc3)cccn12` was tested. Which IC50 did it give?
Its IC50 is 10.5 µM.

Which IC50 does the source give for `Cc1cc(NCc2ccccn2)c2nc(N3CCOCC3)cc(=O)n2c1` here?
The IC50 was 0.5 µM.

How did the IC50 turn out when `Cc1cc(Nc2ccc(Cl)cc2)c2nc(N3CCOCC3)cc(=O)n2c1` was run?
The IC50 was 1 µM.

With `O=c1cc(N2CCOCC2)oc2c(-c3ccc(F)cc3)cccc12` as the molecule, how does the IC50 read?
Its IC50 is 1 µM.

Which IC50 does the source give for `Cc1cccn2c(=O)cc(N3CCOCC3)nc12` here?
The IC50 was 11.1 µM.

How did the IC50 turn out when `Cc1cc(Cl)ccc1Oc1cccc2c(=O)cc(N3CCOCC3)[nH]c12` was run?
The IC50 was 1 µM.

With `Cc1cc(NCc2ccccc2)c2nc(N3CCOCC3)cc(=O)n2c1` as the molecule, how does the IC50 read?
The IC50 was 0.05 µM.

How did the IC50 turn out when `O=c1cc(N2CCOCC2)oc2c(OCc3cccnc3)cccc12` was run?
The IC50 was 1 µM.

How did the IC50 turn out when `Cc1cc(N[C@@H](C)c2ccccc2)c2nc(N3CCOCC3)cc(=O)n2c1` was run?
Its IC50 is 1 µM.

For `O=c1cc(N2CCOCC2)[nH]c2c(OCc3ccccc3)cccc12`, which IC50 is on record?
Its IC50 is 0.1 µM.

With `O=c1cc(N2CCOCC2)[nH]c2c(Oc3ccccc3)cccc12` as the molecule, how does the IC50 read?
Its IC50 is 0.1 µM.

molecular target: PIK3CG (UniProt P48736); assay: PIK3-gamma Enzyme Assay
Sequence (P48736 whole entry, looked up): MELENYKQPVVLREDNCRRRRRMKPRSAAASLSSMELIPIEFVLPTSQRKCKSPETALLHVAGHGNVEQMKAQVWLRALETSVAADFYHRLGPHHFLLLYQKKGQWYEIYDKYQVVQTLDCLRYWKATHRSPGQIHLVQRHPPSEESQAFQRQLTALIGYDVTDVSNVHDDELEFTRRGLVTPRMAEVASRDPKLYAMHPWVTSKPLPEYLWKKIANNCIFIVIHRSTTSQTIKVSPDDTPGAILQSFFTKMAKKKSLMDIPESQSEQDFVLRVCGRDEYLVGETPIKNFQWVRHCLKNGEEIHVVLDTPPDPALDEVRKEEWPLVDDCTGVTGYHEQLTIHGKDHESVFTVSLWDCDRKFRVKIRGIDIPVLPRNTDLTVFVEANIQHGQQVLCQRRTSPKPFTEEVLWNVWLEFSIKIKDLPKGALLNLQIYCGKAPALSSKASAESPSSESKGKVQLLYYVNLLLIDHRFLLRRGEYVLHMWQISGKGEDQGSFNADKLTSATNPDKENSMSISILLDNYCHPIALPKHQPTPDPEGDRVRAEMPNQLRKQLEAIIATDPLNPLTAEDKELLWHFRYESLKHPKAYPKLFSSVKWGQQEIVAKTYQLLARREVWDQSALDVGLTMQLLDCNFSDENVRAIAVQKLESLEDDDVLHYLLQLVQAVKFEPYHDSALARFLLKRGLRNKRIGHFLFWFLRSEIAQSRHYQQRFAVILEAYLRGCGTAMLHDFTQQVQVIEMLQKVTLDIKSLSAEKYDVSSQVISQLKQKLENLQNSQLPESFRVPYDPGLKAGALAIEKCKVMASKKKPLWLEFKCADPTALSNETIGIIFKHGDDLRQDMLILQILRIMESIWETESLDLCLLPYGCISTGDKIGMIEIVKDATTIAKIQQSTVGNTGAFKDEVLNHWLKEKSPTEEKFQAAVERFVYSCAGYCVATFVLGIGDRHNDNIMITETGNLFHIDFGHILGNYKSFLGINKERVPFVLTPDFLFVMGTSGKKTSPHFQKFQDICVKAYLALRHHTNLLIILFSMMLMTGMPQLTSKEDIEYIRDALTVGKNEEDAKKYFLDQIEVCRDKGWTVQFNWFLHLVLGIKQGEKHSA

`O=c1cc(N2CCOCC2)[nH]c2c(OCc3ccccc3)cccc12` was tested. Which IC50 did it give?
The IC50 was 2 µM.
